Results: patent publication US5212173A, “Alkylaminoalkylamine and ether compounds, processes and intermediates for their preparation, and medicaments containing them” (Kali-Chemie Pharma GmbH, priority 1990, dated 1993)

Tests used:
colon = assay: Activity on spontaneous motility of the colon in anesthetized rats; format: in vivo, rat; details: 100 μmol/kg i.p.
Protocol: The effects of the test substances on the amplitudes and frequencies of gastric and intestinal contractions were measured by the following experimental method. Determination of the activity of the test substances on the spontaneous motility of the colon in anesthetized rats.
Fasting rats of the SIV 50 strain having a body weight of 180-250 g were anesthetized with a ketamine/xylazine mixture. The animals were tracheotomised and laparotomised. After applying a pylorus ligature, a stomach tube was inserted into the stomach and connected at the other end to a calibrated pressure transducer (Statham element P 23 ID) via a three-way tap. A corresponding tube was inserted rectally 8 to 9 cm into the colon and likewise connected, in the same manner, to a corresponding calibrated pressure transducer. The stomach of the animals was then filled with 2 to 3 ml of water via the tube. The pressure variations in the colon were recorded before and after administration of the test substances using a Watanabe multicorder (MC 641). The differences between the average amplitudes before and after the treatment were determined, and the percent change in the average amplitudes caused by the test substances relative to the values obtained before the treatment is reported in the following Table B.

[1] = tested on: isolated guinea pig ileum; assay: Spasmolytic action in vitro against potassium chloride-induced contraction on the isolated guinea pig ileum; format: cell-based; details: Cavia porcellus, 50 mmol/l KCl, Tyrode solution, 37° C., read-out: EC50 (approximately 50% reduction in the maximum potassium chloride-induced contraction)
From the text: In a physiological saline solution, isolated organ strips from the gastrointestinal tract such as gastric fundus, gastric antrum, duodenum, ileum, proximal colon and distal colon react to the addition of a spasmogen, for example potassium chloride solution, by contracting. This contraction of the organ strips, induced by the addition of spasmogen, is decreased by addition of the compounds of the invention. The extent of the regression of the contraction is an index of the spasmolytic activity of the compounds. Determination of spasmolytic activity against potassium chloride-induced spasms in isolated guinea pig ileum.
Female guinea pigs of the Wiga strain having a body weight of about 300 g were sacrificed. Organ strips from the ileum about 1 cm long were placed in an organ bath of Tyrode solution at 37° C. and mounted in a conventional apparatus for the isotonic measurement of changes in length. Tyrode solution is an aqueous solution containing 136.9 mmol of NaCl, 2.68 mmol of KCl, 2.31 mmol of CaCl2, 1.0 mmol of MgCl2, 11.9 mmol of NaHCO3, 1.45 mmol of NaH2 PO4 and 5.55 mmol of glucose per liter. After an equilibration phase of one hour, 50 mmol/l of potassium chloride were added to the bath fluid to test the sensitivity of the ileum strips. The strips were then rinsed again with Tyrode solution. 50 mmol/l of potassium chloride were then added to the bath fluid again to induce a contraction of the ileum strip due to spasm. As soon as the contraction of the ileum strip due to spasm has reached a constant maximum value, the test substance was added to the bath fluid, and the decrease in the contraction was recorded and calculated as a % of the constant maximum contraction.
The following table A gives the obtained by the test method described above. The example numbers given in the table for the compounds of formula I correspond to the numbers of the subsequent Preparation Examples. In Table A, the EC50 represents the concentration of the test substance in moles/liter in the bath fluid with which an approximately 50% reduction is achieved in the strength of the maximum spasmodic contraction induced in the ileum strip by potassium chloride.

[2] = in vivo, po, 1440 min
Protocol: Male mice weighing 20-25 g were orally administered maximum doses of 300 mg/kg of the test substance. The animals were carefully observed for toxic symptoms for three hours. All symptoms and deaths over a period of 24 hours after administration were also recorded. Accompanying symptoms were likewise observed and recorded. If death or strongly toxic symptoms was observed, increasingly smaller doses were administered to further mice until toxic symptoms no longer occurred. The lowest dose which caused death or strongly toxic symptoms is given as the minimum toxic dose in the following Table B.

EC50 [1] [µM] | SMILES | Action on spontaneous motility in the colon, % amplitude reduction (colon) [%] | Minimum toxic dose in the mouse [2] [mg/kg]
0.54 | COc1cc(CN(C)CCN(C)CCO[C@@H]2C[C@H](C)CC[C@H]2C(C)C)cc(OC)c1OC [Example 19, N-[2-((1R,3R,4S)-1-methyl-4-isopropylcyclohex-3-yloxy)ethyl]-N-(2-[N'-(3,4,5-trimethoxybenzyl)-N'-methylamino]ethyl)-N-methylamine] | 74 | –
14 | CC(C)[C@H]1CC[C@H](C)C[C@@H]1OCCN(C)CCN1CCOCC1 [Example 24] | – | –
4.8 | CC(C)[C@@H]1CC[C@@H](C)C[C@H]1OCCN(C)CCN(C)CCc1ccccc1Cl [Example 46] | – | –
0.68 | CC(C)[C@@H]1CC[C@@H](C)C[C@H]1OCCN(C)CCN(Cc1ccccc1)Cc1ccccc1 [Example 48] | 85 | –
47 | CC(C)[C@@H]1CC[C@@H](C)C[C@H]1OCCN(C)CCN1CCN(C)CC1 [Example 34] | – | –
19 | CN(CCO[C@@H]1C[C@@H]2CC[C@@]1(C)C2(C)C)CCN1CCOCC1 [Example 38] | – | –
1.9 | CC(C)[C@@H]1CC[C@@H](C)C[C@H]1OCCN(C)CCOCc1ccccc1 [Example 35] | – | –
4.9 | CC(C)COCCNCCO[C@@H]1C[C@H](C)CC[C@H]1C(C)C [Example 16, N-[2-((1R,3R,4S)-1-methyl-4-isopropylcyclohex-3-yloxy)ethyl]-N-[2-(2,2-dimethylethoxy)ethyl]amine] | – | –
26 | CN(CCO[C@H]1C(C)(C)[C@@H]2CC[C@@]1(C)C2)CCN1CCOCC1 [Example 37] | – | –
43 | CC(C)[C@@H]1CC[C@@H](C)C[C@H]1OCCN(C)CCCCCCN1CCOCC1 [Example 36] | – | –
2.4 | CC(C)[C@@H]1CC[C@@H](C)C[C@H]1OCCN(C)CCNCc1ccc(Cl)c(Cl)c1 [Example 44] | – | –
20 | CC(C)[C@@H]1CC[C@@H](C)C[C@H]1OCCN(C)CCN1CCCC1 [Example 32] | – | –
1.3 | CC(C)[C@@H]1CC[C@@H](C)C[C@H]1OCCN(C)CCN(C)CCCCc1ccccc1 [Example 50] | – | –
16 | CN(CCSCC[C@@H]1CC[C@H]2C[C@@H]1C2(C)C)CCN1CCOCC1 [Example 7, N-(2-[2-((1S,2S,5S)-6,6-dimethylbicyclo[3.1.1]hept-2-yl)ethylthio]ethyl)-N-[2-(morpholin-1-yl)ethyl]-N-methylamine] | – | –
30 | CN(CCCCCOCC[C@@H]1CC[C@H]2C[C@@H]1C2(C)C)CCN1CCOCC1 [Example 10, N-(5-[2-((1S,2S,5S)-6,6-dimethylbicyclo[3.1.1]hept-2-yl)ethoxy]pentyl)-N-[2-(morpholin-1-yl)ethyl]-N-methylamine] | – | –
1.5 | COc1ccc(CN(CCN(C)CCO[C@@H]2C[C@H](C)CC[C@H]2C(C)C)C(C)C)cc1OC [Example 23] | – | –

SMILES | EC50 [1] [µM] | Action on spontaneous motility in the colon, % amplitude reduction (colon) [%] | Minimum toxic dose in the mouse [2] [mg/kg]
CC(C)COCCN(C)CCO[C@@H]1C[C@H](C)CC[C@H]1C(C)C [Example 2, N-[2-((1R,3R,4S)-1-methyl-4-isopropylcyclohex-3-yloxy)ethyl]-N-[2-(2,2-dimethylethoxy)ethyl]-N-methylamine] | 2 | 55 | > 300
CC(C)N(CCOCC[C@@H]1CC[C@H]2C[C@@H]1C2(C)C)CCN1CCOCC1 [Example 20] | 7.9 | 69 | > 300
CC(C)[C@@H]1CC[C@@H](C)C[C@H]1OCCN(C)CCN1CCOCC1 [Example 1, N-[2-((1R,3R,4S)-1-methyl-4-isopropylcyclohex-3-yloxy)ethyl]-N-[2-(morpholin-1-yl)ethyl]-N-methylamine] | 12 | 55 | > 300
CCOCCN(C)CCOCC[C@@H]1CC[C@H]2C[C@@H]1C2(C)C [Example 22] | 8.7 | 85 | 100
COc1ccc(CCN(C)CCN(C)CCOCC[C@@H]2CC[C@H]3C[C@@H]2C3(C)C)cc1OC [Example 21] | 3.6 | 62 | 300
